In patent US20230192623A1, “Indazole Derivatives” (Hoffmann-La Roche Inc., priority 2020, published 2023) one finds IC50 data, which are given here for 13 molecules.

The IC50 is the midpoint of a concentration-inhibition curve.

This assay deals with T1, human cGAS (residues 161-522) (Homo sapiens, UniProt Q8N884).
T1 construct: Recombinantly expressed purified human cGAS (residues 161-522) was used at 25nM; made in house
T1 sequence (Q8N884 161-522): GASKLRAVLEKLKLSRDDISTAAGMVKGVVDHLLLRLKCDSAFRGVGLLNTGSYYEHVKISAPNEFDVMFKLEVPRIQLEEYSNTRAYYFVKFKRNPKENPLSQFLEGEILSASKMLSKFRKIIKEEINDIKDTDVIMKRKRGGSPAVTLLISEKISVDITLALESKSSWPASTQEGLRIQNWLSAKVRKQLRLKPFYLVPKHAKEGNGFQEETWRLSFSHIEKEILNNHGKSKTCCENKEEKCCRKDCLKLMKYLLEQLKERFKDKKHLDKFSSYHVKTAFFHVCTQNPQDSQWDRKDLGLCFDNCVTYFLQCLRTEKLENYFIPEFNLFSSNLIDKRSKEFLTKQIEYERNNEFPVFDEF
Kind of assay: Malachite Green assay to measure cGAS activity (coupled enzymatic assay, phosphate detection). Format: biochemical. To be noted: recombinant purified human cGAS 25 nM; 80 μM ATP, 80 μM GTP, 100 nM ISD; 4 hour at RT; absorbance 620 nm. Here is the method: Malachite Green Assay to Measure cGAS Activity
Compounds were tested for cGAS inhibition in a coupled enzymatic assay based on Phosphate detection by Malachite Green. Final assay conditions were 20 mM TRIS pH 7.5 (Applichem), 5 mM MgCl2 (Sigma) and 0.01% BSA (Sigma) supplemented with 80 μM ATP (Sigma), 80 μM GTP (Sigma) and 100 nM Interferon Stimulating DNA (ISD) (Microsynth). Recombinantly expressed purified human cGAS (residues 161-522) was used at 25nM.
All compounds were prepared as 10 mM stock solutions in DMSO and a 16 pt dilution series in DMSO with a dilution factor of 2.5 was prepared. 1 μL of DMSO dilution series was transferred to 32.3 μL reaction buffer, mixed by pipetting up/down, spun for 1 minute at 3000 rpm and was visually inspected for precipitation. 5 μL of 3-fold enzyme stock solution were transferred to an empty 384-well Black/Clear Flat Bottom Polystyrene NBS (Corning) rows 3-24. Rows 1-2 were filled with assay buffer. Plates were spun 10 seconds at 1000 rpm (164×g). 5 μL of compound intermediate dilution was added and mixed by pipetting up/down to rows 3-24. Rows 1-2 were filled with 3.1% DMSO assay buffer. Plates were spun 10 seconds at 1000 rpm (164×g). 5 μL 3-fold Nucleotide/DNA mix was added to all wells to start the reaction. Plates were spun 10 seconds at 1000 rpm (164×g) and incubated for 4 hour at room temperature (RT) in the dark. 5 μL 4U/mL PPase (Sigma) were added to all wells. Plates spun 10 seconds at 1000 rpm (164×g). 10 μL BioMol green Solution (Enzo Life Sciences) was added to all wells. Plates spun 10 seconds at 1000 rpm (164×g) and incubated 30 minutes at RT in the dark. Absorbance data was collected 620 nm on an EnVision Multilable Reader (Perkin Elmer) and the following measurement settings were used: excitation filter photometric was 620 nm; excitation from the top; measurement height was 1 mm; number of flashes was 30; number of flashes integrated was 1.
All plates are checked for abnormalities and outliers in the Blank Control (no protein, row 1) and the Neutral Control (no compound, row 2) are excluded using the 3*SD rule. Data was normalized to 0 and 100% by Blank and Neutral Control and each curve was fitted and judged using the 4 parameter logistic equation to determine the IC50 for cGAS inhibition.
Table 1 provides IC50 values (μM) for cGAS inhibition obtained for particular examples of the present invention as measured by the above-described assay.
As for `Cc1ccc(-c2cc(C(=O)O)c3cn(CCN4CCN(C)CC4)nc3c2)c(Cl)c1` [Example 1, 6-(2-Chloro-4-methylphenyl)-2-(2-(4-methylpiperazin-1-yl)ethyl)indazole-4-carboxylic acid], the IC50 amounted to 1920 nM.
The value for `Cc1ccc(-c2cc(C(=O)O)c3cn(Cc4ccccc4Cl)nc3c2)c(Cl)c1` [Example 2, 6-(2-Chloro-4-methylphenyl)-2-[(2-chlorophenyl)methyl]indazole-4-carboxylic acid] was 2200 nM.
On to `Cc1ccc(-c2cc(C(=O)O)c3cn(Cc4cccc(Cl)c4)nc3c2)c(Cl)c1` [Example 3, 6-(2-Chloro-4-methylphenyl)-2-[(3-chlorophenyl)methyl]indazole-4-carboxylic acid], for which the IC50 came to 3180 nM.
Regarding `Cc1ccc(-c2cc(C(=O)O)c3cn(Cc4ccc(Cl)cc4)nc3c2)c(Cl)c1` [Example 4, 6-(2-Chloro-4-methylphenyl)-2-[(4-chlorophenyl)methyl]indazole-4-carboxylic acid], the IC50 was determined as 2760 nM.
`Cc1ccc(-c2cc(C(=O)O)c3cn(Cc4nc(C5CC5)no4)nc3c2)c(Cl)c1` [Example 5, 6-(2-Chloro-4-methylphenyl)-2-((3-cyclopropyl-1,2,4-oxadiazol-5-yl)methyl)indazole-4-carboxylic acid]: the IC50 worked out at 2210 nM.
The value for `Cc1ccc(-c2cc(C(=O)O)c3cn(Cc4cccnc4)nc3c2)c(Cl)c1` [Example 6, 6-(2-Chloro-4-methylphenyl)-2-(pyridin-3-ylmethyl)indazole-4-carboxylic acid] was 2930 nM.
As to `Cc1ccc(-c2cc(C(=O)O)c3cn(Cc4ccccn4)nc3c2)c(Cl)c1` [Example 7, 6-(2-Chloro-4-methylphenyl)-2-(pyridin-2-ylmethyl)indazole-4-carboxylic acid], the IC50 stood at 2400 nM.
Regarding `Cc1ccc(-c2cc(C(=O)O)c3cn(Cc4nc(C)c(C)o4)nc3c2)c(Cl)c1` [Example 8, 6-(2-Chloro-4-methylphenyl)-2-((4,5-dimethyloxazol-2-yl)methyl)indazole-4-carboxylic acid], the IC50 was determined as 2740 nM.
As to `Cc1ccc(-c2cc(C(=O)O)c3cn(CC(F)(F)F)nc3c2)c(Cl)c1` [Example 9, 6-(2-Chloro-4-methylphenyl)-2-(2,2,2-trifluoroethyl)-2H-indazole-4-carboxylic acid], the IC50 came out at 1560 nM.
The value for `Cc1ccc(-c2cc(C(=O)O)c3cn(Cc4ccccc4)nc3c2)c(Cl)c1` [Example 10, 2-Benzyl-6-(2-chloro-4-methylphenyl)-2H--indazole-4-carboxylic acid] was 1370 nM; that for `Cc1ccc(-c2cc(C(=O)O)c3cn(CCc4ccccc4)nc3c2)c(Cl)c1` [Example 11, 6-(2-Chloro-4-methylphenyl)-2-phenethyl-2H-indazole-4-carboxylic acid] was 2350 nM; that for `Cc1cc(Cl)c(-c2cc(C(=O)O)c3cn[nH]c3c2)cc1F` [Example 12, 6-(2-Chloro-5-fluoro-4-methylphenyl)-1H-indazole-4-carboxylic acid] was 4590 nM.
Take `Cc1ccc(-c2cc(C(=O)O)c3cn[nH]c3c2)c(Cl)c1` [Example 13, 6-(2-Chloro-4-methylphenyl)-1H-indazole-4-carboxylic acid]: the IC50 was found to be 4460 nM.
